The test system of one series is rat lung grafts. The series can be described thus: Rat orthotopic left lung transplantation of donor-pretreated lungs: graft function, edema, histology, cell infiltration. The series is classed as in vivo. The note with it: for T-cell (CD3+) infiltration / macrophage (CD68+) infiltration / polymorphonuclear neutrophil (PMN) infiltration: 2 h after reperfusion; for T-cell (CD3+) infiltration / macrophage (CD68+) infiltration / wet-to-dry (W/D) ratio / polymorphonuclear neutrophil (PMN) infiltration: vs control; for congestion, swollen alveolar walls, secretions in the airways (H&E) / wet-to-dry (W/D) ratio / PaO2/FiO2 (P/F) ratio: 2 h after transplantation, donor pre-treatment; for PaO2/FiO2 (P/F) ratio: vs control lung grafts; for polymorphonuclear neutrophil (PMN) infiltration: naphthol staining. The text has this:
Study design. To investigate the stability of eGC in lung grafts and its potential influence on graft function and quality after reperfusion, we established rat models with damaged or preserved lung eGC and performed orthotopic, single, left-lung transplantation or EVLP using the lungs from these rats. Animals were randomly assigned 4 different groups; (1) native lungs (normal control), (2) Control: lungs with eGC damage, (3) Heparin: lungs with eGC preserved by heparin, and (4) NAH: lungs with eGC preserved by NAH. Shedding of the eGC was induced in vivo by donor systemic ischemia. After 1 h of ischemia in vivo, lungs were procured in a standardized fashion for lung transplantation then either directly transplanted or subjected to EVLP and assessed biologically. Native lungs were not subjected to any insult.
Models of lungs with damaged or preserved eGC and rat orthotopic left lung transplantation. Rats were sedated with 4% isoflurane via inhalation for tracheostomy and then placed on a ventilator. They received 5% isoflurane with 100% O2 via inhalation through the ventilator for 15 min to induce a deep state of anesthesia that causes arrest of spontaneous breathing. The rats were disconnected from the ventilator 5 min after intravenous administration of heparin (300 IU), a heparin derivative without anti-coagulant properties (300 μg; N-acetyl heparin (NAH) (Millipore Sigma, Burlington, MA)), or saline (300 μl, control) through the jugular vein. Cardiac activity and blood oxygen saturation were monitored after disconnection from ventilator until cardiac arrest. One hour after induction of ischemia, a median thoracotomy was performed, and blood was flushed from the lungs with cold, low potassium dextran solution (PERFADEX; XVIVO Perfusion AB) through the pulmonary artery. Then, the heart-lung bloc was isolated and stored in cold PERFADEX for 6 h before transplantation.
Orthotopic single-lung transplantation of the left lung was performed using the cuff method. Two hours after reperfusion, the naive lung was clamped, 100% 02 was administered for 5 min through a ventilator, and the recipient's blood was sampled from the graft pulmonary vein for blood gas analysis.
Wet-to-dry (W/D) weight ratio. The weight of the lung tissues was measured immediately after collection (wet weight). The lung tissue was then placed into a 60° C. oven to dry for 72 h. Tissues were weighed to deter-mine the dry weight, and the wet-to-dry ratio was calculated.
Tissue staining and histopathological analysis. Formalin-fixed, paraffin-embedded lung tissues collected 2 h after transplantation were sectioned to 4-μm thickness and stained with hematoxylin and eosin. The sections were also stained for immunofluorescent imaging using primary antibodies for CD3 (Invitrogen), CD68 (Invitrogen), or syndecan-1 (Santa Cruz), and Hoechst 33342 dye for nuclear staining. Primary antibody was detected by secondarily Cy5-conjugated goat anti-rabbit IgG (Invitrogen) and Cy3-conjugated goat anti-mouse IgG (Millipore Sigma).
Polymorphonuclear neutrophils (PMNs) were stained using a naphthol AS-D chloroacetate esterase staining kit (Millipore Sigma) and identified by nuclear morphology staining in bright red. Stained slides were scanned with a whole-slide image scanner (Axio Scan.Z1; Carl Zeiss) and analyzed with digital image processing software (ZEN lite blue edition; Carl Zeiss). Stained cells were counted by two investigators with the identity of the samples masked.

The test system of a further series is heparanase (HPSE). As to the kind of experiment: In vitro β-D-glucuronidase activity assay (4-MUG substrate).
The subject of series [1] is human lung microvascular endothelial cells (HLMVECs). The series can be described thus: In-vitro cellular toxicity test for HPSE inhibitor candidates. On the procedure:
In-vitro cellular toxicity test for HPSE Inhibitor candidates: Human lung microvascular endothelial cells (HLMVECs) were obtained from the American Type Culture Collection (Rockville, MD, USA). Cells were cultured in a humidified incubator at 37° C. and 5% CO2 and grown in endothelial growth medium (EGM™-2 Endothelial Cell Growth Medium-2, Lonza, Basel, Switzerland) supplemented with 2% heat-inactivated fetal bovine serum and 0.04% hydrocortisone. Cell media was replaced every 48 hours, and the cells were split upon 80-90% confluence.
Final tested concentrations of HPSE inhibitors were calculated based upon repeatable in vitro dose-response studies. After 24 hours incubation, cell viability was confirmed by Trypan blue exclusion assay. Total mRNA was isolated using Trizol (Thermo Fisher Scientific Inc., Waltham, MA) and relative messenger RNA (mRNA) expression levels of hemeoxygenase-1 (HO-1), interleukin (IL)-6, tumor necrosis factor (TNF)-α, monocyte chemoattractant protein (MCP)-1, B-cell lymphoma 2 Associated X (Bax), B-cell lymphoma 2 (Bcl-2), B-cell lymphoma-extra-large (Bcl-xL) were quantified by SYBR Green 2-step, real-time, reverse transcription-polymerase chain reaction (RT-PCR). Relative gene expression levels were normalized to mRNA expression of glyceraldehyde-3-phosphate dehydrogenase (GAPDH) and compared to relative mRNA expression levels in control-treated HLMVEC.

Another series concerns MMP-2. As to the kind of experiment: Gelatin zymography of EVLP perfusate, inhibitors in perfusate. The note with it: 4 hours EVLP, vs SF4 and control groups. On the set-up: species or system rat. On the procedure:
Gelatin zymography: Gelatin zymography was performed to measure secreted MMP-2 and MMP-9 activities in EVLP perfusate. Briefly, 20 μl of perfusate was mixed with 2×SDS sample buffer then loaded onto a 10% polyacrylamide gel containing 0.1% SDS and […]. After protein separation by electrophoresis, the gel was washed in renaturing buffer (Novex™ Invitrogen™) at room temperature, and then incubated in developing buffer (Novex™ Invitrogen™) overnight at 37° C. The next day, the gel was stained with Coomassie Brilliant Blue R-250 (Bio-Rad) and imaged (ChemiDoc, Bio-Rad). Enzyme activity, visualized as clear bands against the dark blue background, was quantified using Image-J (NIH).

Description for heparanase (HPSE): In vitro β-D-glucuronidase activity assay Heparanase activity was measured via β-Glucuronidase activity assay using 4-methylumbelliferyl-β-D-glucuronide (4-MUG) substrate (Millipore-Sigma). As a source of enzymes, platelet rich plasma (PRP) obtained from rat whole blood or rat lung whole tissue lysate, was used. […] Fluorescence (λex 360 nm/λem 460 nm) was continuously measured for 60 minutes using a fluorescence microplate reader (BioTech Synergy HTX, Agilent Technologies, Santa Clara, CA).

For heparin, in the series on rat lung grafts, the “T-cell (CD3+) infiltration” value is reported as “significantly reduced”; the “macrophage (CD68+) infiltration” value is “significantly reduced”; the “congestion, swollen alveolar walls, secretions in the airways (H&E)” value is reported as “not observed”; the “wet-to-dry (W/D) ratio” value is “lower”. In the series on rat lung grafts, the “PaO2/FiO2 (P/F) ratio” value is on record as “significantly higher” and the “polymorphonuclear neutrophil (PMN) infiltration” value was “significantly reduced”. Besides, the “inhibition of HPSE in vitro, compared with SF4” value in the series with heparanase (HPSE) (in vitro data) is reported as “not as effective as SF4”. Moreover, in the series with heparanase (HPSE) (in vitro, FIG. 8), the “β-D-glucuronidase activity, dose response” value is “increased in a dose-dependent manner”. In series [1], the “toxicity against HLMVECs (endothelial cell cultures)” value is listed as “safe”. The “MMP-2 activity in EVLP perfusate” value in the series with MMP-2 is “significantly elevated”.

Turning to N-acetyl heparin [NAH], in the series on rat lung grafts, the “T-cell (CD3+) infiltration” value is listed as “significantly reduced”; the “macrophage (CD68+) infiltration” value was “significantly reduced”; the “congestion, swollen alveolar walls, secretions in the airways (H&E)” value is recorded as “not observed”; the “wet-to-dry (W/D) ratio” value was “lower”. For the same substance, in the series on rat lung grafts, the “PaO2/FiO2 (P/F) ratio” value is “significantly higher” and the “polymorphonuclear neutrophil (PMN) infiltration” value is recorded as “significantly reduced”.

For the origin of these results see patent publication US20250204515A1, “Heparanase Inhibition for Graft Protection” (University of Pittsburgh - Of the Commonwealth System of …, priority 2022, published 2025).
